Assay results: ChEMBL document CHEMBL1275538, “In vitro activity of OPT-80 tested against clinical isolates of toxin-producing Clostridium difficile” (Antimicrob Agents Chemother, 2008)
In brackets after ≈: the same amount, converted by molar mass.

Tests used:
[1] = system: Clostridioides difficile; experiment: Antibacterial activity against toxin-positive Clostridium difficile clinical isolate by agar dilution method in presence of clavulanic acid; type: functional
[2] = system: Clostridioides difficile; experiment: Antibacterial activity against toxin-positive Clostridium difficile clinical isolate assessed as percent of susceptible isolates by agar dilution method; type: functional
[3] = system: Clostridioides difficile; experiment: Antibacterial activity against toxin-positive Clostridium difficile clinical isolate by agar dilution method; type: functional
[4] = Cmax in syrian golden hamster serum at 200 mg administered BID after 1.5 hrs; type: ADME, organism-based, Mesocricetus auratus; set-up: dose 200 mg
[5] = system: Clostridioides difficile; experiment: Antibacterial activity against Clostridium difficile by agar dilution method using Wilkins-Chalgren agar; type: functional
[6] = system: Clostridioides difficile; experiment: Antibacterial activity against Clostridium difficile by broth microdilution method using Wilkins-Chalgren broth; type: functional
[7] = system: Clostridioides difficile; experiment: Antibacterial activity against Clostridium difficile by M11-A5 CLSI agar dilution; type: functional
[8] = system: Clostridioides difficile; experiment: Antibacterial activity against Clostridium difficile by M11-A6 CLSI agar dilution; type: functional
[9] = system: Clostridioides difficile; experiment: Antibacterial activity against Clostridium difficile by M11-A7 CLSI agar dilution; type: functional
[10] = Apparent elimination half-life in syrian golden hamster at 400 mg/kg; type: ADME, organism-based, Mesocricetus auratus; set-up: dose 400 mg/kg; settings: in vivo, read-out: beta t1/2 (converted)
[11] = system: Clostridioides difficile; experiment: Antibacterial activity against toxin-positive Clostridium difficile clinical isolate by agar dilution method in presence of Tazobactam; type: functional

`CC1(C)S[C@@H]2[C@H](NC(=O)[C@H](N)c3ccc(O)cc3)C(=O)N2[C@H]1C(=O)O` [AMOXICILLIN] showed an MIC50 [1] of 1 µg/mL and an MIC90 [1] of 1 µg/mL.

For `CO/N=C(\C(=O)N[C@@H]1C(=O)N2C(C(=O)O)=C(CSc3nc(=O)c(O)nn3C)CS[C@H]12)c1csc(N)n1` [CEFTRIAXONE], the Activity [2] was 1%, the MIC50 [3] was 32 µg/mL (≈ 57.7 µM) and the MIC90 [3] was 128 µg/mL (≈ 231 µM).

For `CCC[C@@H]1C[C@@H](C(=O)N[C@@H]([C@H]2O[C@H](SC)[C@H](O)[C@@H](O)[C@H]2O)[C@H](C)Cl)N(C)C1` [CLINDAMYCIN], the Activity [2] was 17.3%, the MIC50 [3] was 8 µg/mL (≈ 18.8 µM) and the MIC90 [3] was > 16 µg/mL.

In the case of `CCc1c(Cl)c(O)c(Cl)c(O)c1C(=O)O[C@H]1[C@H](O)[C@H](OC)[C@H](OC/C2=C\C=C\C[C@H](O)/C(C)=C/[C@H](CC)[C@@H](O[C@@H]3OC(C)(C)[C@@H](OC(=O)C(C)C)[C@H](O)[C@@H]3O)/C(C)=C/C(C)=C/C[C@@H]([C@@H](C)O)OC2=O)O[C@@H]1C` [FIDAXOMICIN], the Cmax [4] is reported as 26.5 ng/mL, the MIC50 [5] is reported as 0.25 µg/mL (≈ 0.236 µM) and the MIC90 [5] is reported as 0.25 µg/mL (≈ 0.236 µM). The MIC50 [3] was 0.25 µg/mL (≈ 0.236 µM), the MIC90 [3] was 0.5 µg/mL (≈ 0.473 µM) and the MIC50 [6] was 0.0019 µg/mL (≈ 0.0018 µM). The MIC90 [6] was 0.0078 µg/mL (≈ 0.00737 µM), the MIC [7] was ≤ 0.06 µg/mL and the MIC50 [7] was ≤ 0.016 µg/mL. It also gave an MIC90 [7] of 0.125 µg/mL (≈ 0.118 µM), an MIC50 [8] of 0.125 µg/mL (≈ 0.118 µM) and an MIC90 [8] of 0.125 µg/mL (≈ 0.118 µM). The MIC50 [9] was 0.25 µg/mL (≈ 0.236 µM), the MIC90 [9] was 0.5 µg/mL (≈ 0.473 µM) and the half-life [10] was 56.4 min.

Compound `C[C@@H](O)[C@H]1C(=O)N2C(C(=O)O)=C(S[C@@H]3CN[C@H](C(=O)N(C)C)C3)[C@H](C)[C@H]12` [MEROPENEM] has an MIC50 [3] of 2 µg/mL (≈ 5.22 µM) and an MIC90 [3] of 2 µg/mL (≈ 5.22 µM).

With `CCN1CCN(C(=O)N[C@@H](C(=O)N[C@@H]2C(=O)N3[C@@H]2SC(C)(C)[C@@H]3C(=O)O)c2ccccc2)C(=O)C1=O` [PIPERACILLIN] the MIC50 [11] was 8 µg/mL and the MIC90 [11] was 8 µg/mL.

Work on `CO[C@H]1/C=C/O[C@@]2(C)Oc3c(C)c(O)c4c(O)c(c(/C=N/N5CCN(C)CC5)c(O)c4c3C2=O)NC(=O)/C(C)=C\C=C\[C@H](C)[C@H](O)[C@@H](C)[C@@H](O)[C@@H](C)[C@H](OC(C)=O)[C@@H]1C` [RIFAMPIN] yielded an MIC50 [3] of 0.015 µg/mL (≈ 0.0182 µM) and an MIC90 [3] of 0.015 µg/mL (≈ 0.0182 µM).
